Ends that are not written are not given here. Peptide text beside a SMILES is read from it. * marks the point of attachment. BODIPYFLEthylmaleimide = Cc1cc(C)n2c1C=C1C=CC(CCC(=O)NCCN3C(=O)CC(*)C3=O)=[N+]1[B-]2(F)F; BODIPY = not defined here; Cam = NC(=O)C*

Here are results for twelve molecules from US8790883B2, “Methods of identifying NF-κB inhibitors” (priority 2003, dated 2014).

A short description of data set [1]: Cytotoxicity of NLM-DR derived peptides (MTS, FACS, microscope), Table 2.
Data set [2] deals with human retinoblastoma cell lines Y79. As to the kind of experiment: Cell death assay (MTS) in retinoblastoma cell line Y79. It is filed as cell-based. As to conditions: for Y79 cells died: 5 μM concentration, longer treatment (FIG. 8C); for Induction of Y79 cell death: 3 hours, various concentrations, peptides without BODIPY. The method, then:
Rb cell line Y79 were treated with various concentration of the Ant-CC2 (WT) (filled squares) or Ant-CC2 (Mu) (open squares) (A), or Ant-LZ (WT) (filled circles), or Ant-LZ (Mu) (open circles) (B), or Ant peptide (open triangle) (C) for 3 hours (A, B) or 16 hours (C). Cell survival was then evaluated using the MTS assay as described in “Materials and methods”
The detection of cell death was performed using the MTS assay provided by Promega (CellTiter 96® AQueous one solution cell proliferation assay). Briefly, 0.3×10^6 Y79 cells in 450 μl were treated with 50 μl of the wild type Ant-CC2 and Ant-LZ peptides (0.1 to 20 μM) or their mutants Ant-CC2 (Mu), Ant-LZ (Mu) or the Ant or left untreated in serum-free RPMI medium at 37° C. After an incubation of […], an aliquot of the cell suspension (200 μl, 0.12×10^6 cells), was then transferee in 96-well plates and mixed with the MTS solution (40 μl) containing the MTS compound and the phenazine ethosulfate. Two hours after, the quantity of formazan produced by viable cells was measured using an automated microplate reader (Bio-TeK Instruments, INC) at 490 nm absorbance. Cell survival was observed under microscope and was estimated as a percentage of the value of untreated controls. The background of the reaction was determined by mixing the MTS solution with cell-free RPMI medium. To increase the sensitivity of the cell death assay, the present inventors used peptides devoid of BODIPY-labeling because the absorption spectra of the fluorophor overlaps with that of the formazan product. All experiments were repeated twice and each experiment condition was repeated in duplicate wells in each experiment.

Data set [3] has as its system LPS-induced NF-κB activation. As to the kind of experiment: NF-κB inhibition assay, first procedure: LPS-induced NF-κB dependent β-galactosidase reporter in 70Z/3-C3 cells. It is filed as cell-based, murine. To be noted: for LPS-induced NF-κB activation in presence of peptide: 20 μM peptide 2 h, LPS (3 μg/ml) 5 h, 70Z3-C3 cells.
Protocol: The resulting cell line, 70Z3-C3, was incubated for 2 hours in the absence or in the presence of 20 μM of antennapedia peptide (Ant), or BODIPY-labeled antennapedia peptide (BODIPY-Ant), or BODIPY-labeled antennapedia peptide coupled to CC2 (BODIPY-Ant-CC2) or LZ (BODIPY-Ant-LZ) peptides, After peptide internalization, cells were treated for 5 hours with LPS (3 μg/ml, (+) in left panel) or untreated (right panel and (−) in left panel) and the NF-κB activity was measured by β-galactosidase assay. Error bars represent the standard deviation of three separate experiments. (B) Concentration dependence of inhibition of LPS-induced NF-κB activation by BODIPY-Ant-CC2 peptide (left panel) or BODIPY-Ant-LZ peptide (right panel). Cells were treated as in (A) but with different concentration of peptide as indicated. The potential of each peptide to inhibit LPS-induced NF-κB activation was measured by determining the IC50 value that correspond to 50% inhibition of LPS-induced NF-κB activation as compared to the control (no peptide) (C). (D) Effect of the N-fusion sequence of antennapedia on the inhibition of NF-κB activation. Control (no peptide) or CC2, or LZ peptides, with (BODIPY-ANT-CC2, BODIPY-ANT-LZ) or without the antennapedia sequence at the N-terminus (CC2, LZ) were incubated for 2 hours with 70Z3-C3 cells followed with (+) or without (−) the LPS-treatment for 3 hours. NF-κB activity was then measured by β-galactosidase assay.
In a first procedure 2.2×10^5 70Z/3-C3 cells in 220 μl of RPMI 1640 supplemented with 10% fetal calf serum (FCS) and 50 μM β-mercaptoethanol were placed in a 96-well plate and incubated with various concentrations of peptide (0 to 20 μM) at 37° C. in 5% CO2 incubator. After two hours an equal portion (100 μl) of each cell sample transferred in two wells containing each 10^5 cells. One aliquot of cells was then treated for 5 hours with lipopolysaccharides from Salmonella abortus (Sigma) at 0.5 μg/ml final concentration, and the other one left-treated. After 5 hours, cells were centrifuged at 400×g for 5 min at room temperature and the cell pellets were washed three times with cold PBS (250 μl) by centrifugation. Cells were then lysed in the lysis buffer (25 mM tris-phosphate buffer at pH 7.8 containing 8 mM magnesium chloride, 1 mM dithioerythreitol, 1% Triton X-100, 15% glycerol and a protease inhibitor mixture (Roche)), and samples were centrifuged at 4° C. for 20 min to clarify the lysate. The supernatant was then kept on ice, and 30 μl was then assayed to measure the β-galactosidase activity with a plate luminometer (Berthold) using the GALACTON-STAR™ as chemiluminescent substrate (BD Biosciences Clontech, Bronstein et al., 1989). Background of reaction was measured by mixing for 1 hour 30 μl of lysis buffer with the reaction buffer (196 μl) and the GALACTON-STAR™ substrate (4 μl) provided by BD Biosciences. In a second procedure and a more stringent assay, 70Z/3-C3 cells (2.2×105 in 220 μl medium) were centrifuged at 400×g at room temperature after peptide internalization for 2 hours, and cell pellets were washed three times with 200 μl of PBS by centrifugation. Cells were then diluted three times with complete medium, and allowed to grow for at least 24 hours. The following steps are identical to the first procedure.
To analyze the inhibition potential of LPS-induced NF-κB activation by cell permeable BODIPY-Ant-CC2 and BODIPY-Ant-LZ peptides, the present inventors stably transfected the murine pre-B 70Z3 cell line with p12XlacZ-kB, which bears the β-galactosidase reporter gene under the control of the NF-κB transcription factor.
The subject of data set [4] is LPS-induced NF-κB activation. As to the kind of experiment: More stringent NF-κB inhibition assay, second procedure: peptide internalization, washing, 24 h growth, then LPS. Type of data set: cell-based, murine. To be noted: 10 μM peptide. The source says:
Left panels show a helical wheel diagram of CC2 (A) and LZ (B) peptides. The view is from the top the molecule. The (a) through (g) positions, which are an essential feature of coiled coil sequence (Vinson, 2002, Mol. Cell. Biol.) represent sequential positions in each peptide sequence. The first (a) and fourth (d) positions that are generally occupied by hydrophobic amino acids constitute the hydrophobic core for parallel as well as antiparallel-coiled coils. Mutations that were introduced in (a) positions of the CC2 variant (BODIPY-Ant-CC2 (Mu); shown as residues 6-40 of SEQ ID NO:3, with glycine mutations corresponding to residues 6-40 of SEQ ID NO:5) or in (d) positions of the LZ variant (BODIPY-Ant-(Mu) are shown. In the right panels, 70Z3-C3 cells were incubated for 2 hours in the absence (control) or in the presence of 10 μM of cell permeable wild type (BODIPY-Ant-CC2 (WT)) or mutant (BODIPY-Ant-CC2 (Mu)) CC2 peptides (A) or wild type (BODIPY-Ant-LZ (WT)) or mutant (BODIPY-Ant-(Mu)) LZ peptides (B). The cells were then extensively washed to remove the excess peptide which had not been internalized and the cells were then diluted three times and allowed to grow for 24 hours before treatment for 5 hours with (+) or without LPS (−). NF-κB activity was measured using the β-galactosidase assay. Error bars represent the standard deviation of two independent experiments.
(A) Sequence alignment of the NEMO-derived LZ (residues 301-336 of SEQ ID NO: 12) and the GCN4 peptides (residues 23-55 of SEQ ID NO:8). Both coiled-coil motifs were aligned using clustalX. Identical and similar amino acid residues (shaded) are indicated by (!) or (*), respectively. (B) Overview and helical wheel diagram of the GCN4 coiled-coil (top view). The amino-acid sequence of GCN4 is shown with its corresponding [a-g] positions and residues that differ from the corresponding NEMO-derived LZ sequence are boxed according to their degree of conservation. Identical (open square) and similar residues (open triangle) are indicated. […] NF-κB activity was measured using the b-galactosidase assay. […]

The nature of data set [5]: Analytical gel filtration, oligomeric states of peptides. Type of data set: physicochemical. As to conditions: 10 μM, Superdex 75, buffer with 0.1 mM DDM. The method, then: All peptides were loaded at a 10 μM concentration on a superdex 75 HR10/30 column equilibrated in a buffer containing 0.1 mM DDM to improve recovery (see “Materials and methods”). Chromatographic profiles of the CC2 mutant (dashed line) and the CC2 wild type (solid line) fused (BODIPY-Ant-CC2 (WT), BODIPY-Ant-CC2 (Mu), or not fused to the antennapedia sequence (CC2 (WT), CC2 (Mu)) are shown in left panels, and elution profiles of the LZ mutant (dashed line) and the wild type (solid line) fused (BODIPY-Ant-LZ (WT), BODIPY-Ant-LZ (Mu), or not fused to the antennapedia sequence (LZ (WT), LZ (Mu)) are represented in right panels. Elution volumes of globular protein markers are indicated by arrows: Oval, ovalbumin (43 kDa); Chym, chymotrypsinogene A (25 kDa); Ribo, Ribonuclease (13.4 kDa) and Apro, aprotinin (6.5 kDa).
The oligomeric states of peptides were determined by filtration as described in Traincard et al., 2003. In brief, 500 μl samples were loaded on a SUPERDEX™ 75 HR 10/30 column equilibrated in 50 mM Tris-HCl pH 8.0 containing 200 mM NaCl and 0.1 mM DDM, at a constant flow rate of 0.4 ml/min. The presence of the DDM detergent was added in the equilibrium buffer to minimize the adsorption in the column and to increase the peptide recovery. The column was calibrated in the same equilibrium buffer with blue dextran 2000 (void volume), dithioerythritol (total volume), bovine serum albumin (67 kDa, Rs=35.2 Å), ovalbumine (43 kDa, Rs=27.5 Å), chymotrypsinogen A (25 kDa, Rs=21.1 Å), ribonuclease A (13.7 kDa, Rs=16.4 Å), cytochrome C (12.4 kDa, Rs=17.7 Å) and aprotinin (6.5 KDa, Rs=13.5 Å).
Background: SEC sorts molecules by how far they enter the pores of the column.

For `CC[C@H](C)[C@H](NC(=O)[C@H](CC(=O)O)NC(=O)[C@H](C)NC(=O)[C@H](CCC(N)=O)NC(=O)[C@H](C)NC(=O)[C@H](CCCCN)NC(=O)[C@H](CC(C)C)NC(=O)[C@H](CCCNC(=N)N)NC(=O)[C@H](CCCNC(=N)N)NC(=O)[C@H](CCCNC(=N)N)NC(=O)[C@H](CCC(N)=O)NC(=O)[C@H](CCCNC(=N)N)NC(=O)[C@H](CCCNC(=N)N)NC(=O)[C@H](CCCCN)NC(=O)[C@H](CCCCN)NC(=O)[C@H](CCCNC(=N)N)NC(=O)CNC(=O)[C@H](Cc1ccc(O)cc1)NC(=O)[C@H](CSC1CC(=O)N(CCNC(=O)CCC2=[N+]3C(=Cc4c(C)cc(C)n4[B-]3(F)F)C=C2)C1=O)NC(C)=O)C(=O)N[C@@H](Cc1ccc(O)cc1)C(=O)N[C@@H](CCCCN)C(=O)N[C@@H](C)C(=O)N[C@@H](CCCNC(=N)N)C(=O)N[C@@H](Cc1ccccc1)C(=O)N[C@@H](CCC(N)=O)C(=O)N[C@@H](C)C(=O)N[C@@H](CCC(=O)O)C(=O)N[C@@H](CCCNC(=N)N)C(=O)N[C@@H](Cc1c[nH]cn1)C(=O)N[C@@H](C)C(=O)N[C@@H](CCCNC(=N)N)C(=O)N[C@@H](CCC(=O)O)C(=O)N[C@@H](CCCCN)C(N)=O` (stereo partly shown) [BODIPY-TAT-NLM-DR] (Ac-C(BODIPYFLEthylmaleimide)YGRKKRRQRRRLKAQADIYKARFQAERHAREK-NH2), in data set [1], the “Cytotoxicity Cell morphology FACS” value is recorded as “no” and the “Cytotoxicity Cell morphology Microscope” value is given as “no”.

In data set [2], “Ac-C(Cam)RQIKIWFQNRRMKWKKLKAQADIYKADFQAERHAREKLVEKKEYLQEQLEQLQREFNKL-NH2 [Ant-LZ]” yielded a Y79 cells died of 80%.

For the molecule “Ac-C(Cam)RQIKIWFQNRRMKWKKSKGMQLEDLRQQLQQAEEALVAKQELIDKLKEEAEQHKIV-NH2 [Ant-CC2]”, the Y79 cells died in data set [2] was 55%. As for “Ant-CC2 (Mu): mutant Ant-CC2 devoid of BODIPY-labeling (SEQ ID NO: 4) (Ac-CRQIKIWFQNRRMKWKKSKGMQLEDLRQQGQQAEEAGVAKQELGDKLKEEAEQHKIV-NH2)”, in data set [2], the “Induction of Y79 cell death” value is listed as “did not induce concentration cell death”. In the case of “Ant-LZ (Mu): mutant Ant-LZ devoid of BODIPY-labeling (SEQ ID NO: 8) (Ac-CRQIKIWFQNRRMKWKKLKAQADIYKADFQAERHAREKLVEKKEYSQEQLEQSQREFNKL-NH2)”, in data set [2], the “Induction of Y79 cell death” value is “not”. As to “Ant: antennapedia/penetratin internalization peptide without BODIPY label (SEQ ID NO: 1) (CRQIKIWFQNRRMKWKK) [reference compound]”, the “LPS-induced NF-κB activation in presence of peptide” value in data set [3] is “same level of NF-κB activation as the control”. The “Effect on Y79 cell survival, longer treatment” value in data set [2] (16 hours (FIG. 8C)) is given as “did not affect cell survival”. For the molecule “B-CRQIKIWFQNRRMKWKK ({BODIPY}-CRQIKIWFQNRRMKWKK; reading uncertain) [BODIPY-Ant, reference compound]”, the “LPS-induced NF-κB activation in presence of peptide” value in data set [3] was “same level of NF-κB activation as the control”. On to “B-CRQIKIWFQNRRMKWKKLKAQADIYKADFQAERHAREKLVEKKEYLQEQLEQLQREFNKL (C(BODIPY)RQIKIWFQNRRMKWKKLKAQADIYKADFQAERHAREKLVEKKEYLQEQLEQLQREFNKL-NH2; not fully specified (N-terminus); reading uncertain) [BODIPY-Ant-LZ (WT)]”, for which the entries for the “LPS-induced NF-κB activation in presence of peptide” value in data set [3] and in data set [3] (listed as “Leucine zipper” peptide) were “decreased significantly” and “completely eliminates cell response”, respectively.

As to “B-CRQIKIWFQNRRMKWKKLKAQADIYKADFQAERHAREKLVEKKEYSQEQLEQSQREFNKL (C(BODIPY)RQIKIWFQNRRMKWKKLKAQADIYKADFQAERHAREKLVEKKEYSQEQLEQSQREFNKL-NH2; not fully specified (N-terminus); printed as B-CRQIKIWFQNRRMKWKKLKAQADIYKADFQAERHAREKLVEKKEYSQEQLEQSQREFNKL; reading uncertain) [BODIPY-Ant-LZ (Mu)]”, the “Inhibition of NF-κB activation compared to the control” value in data set [4] is reported as 15%. Take “LKAQADIYKADFQAERHAREKLVEKKEYLQEQLEQLQREFNKL [LZ (WT)]”: the “LPS-induced NF-κB activation, peptides not fused to antennapedia” value in data set [3] (peptide 2 h, LPS 3 h, 70Z3-C3 cells (FIG. 3D)) was “same level of activation as the control”. In addition, the “Oligomeric state by gel filtration” value in data set [5] was “dimer”.

Regarding “LKAQADIYKADFQAERHAREKLVEKKEYSQEQLEQSQREFNKL [LZ (Mu)]”, the “Oligomeric state by gel filtration” value in data set [5] is “still detected dimerization”. As for “SKGMQLEDLRQQGQQAEEAGVAKQELGDKLKEEAEQHKIV [CC2 (Mu)]”, the “Oligomeric state by gel filtration” value in data set [5] is on record as “lost its ability to oligomerize”.
